One block for each molecule: values may come before it. Calls of active or inactive are those of the source. The rule behind the calls is not given here.
How the values were obtained:
[1] = target: NACHT, LRR and PYD domains-containing protein 3 (Mus musculus, UniProt Q8R4B8); assay: Inhibition of NLRP3 inflammasome in mouse […] cells assessed as inhibition of LPS/ATP-induced IL-1 beta secretion primed with LPS for 4.5 hs followed by incubation with compound for 30 mins and later stimulation with ATP for 30 mins by ELISA; type: cell-based, J774.A1
Chain of NACHT, LRR and PYD domains-containing protein 3 (Q8R4B8 whole entry, the tested form may be a part): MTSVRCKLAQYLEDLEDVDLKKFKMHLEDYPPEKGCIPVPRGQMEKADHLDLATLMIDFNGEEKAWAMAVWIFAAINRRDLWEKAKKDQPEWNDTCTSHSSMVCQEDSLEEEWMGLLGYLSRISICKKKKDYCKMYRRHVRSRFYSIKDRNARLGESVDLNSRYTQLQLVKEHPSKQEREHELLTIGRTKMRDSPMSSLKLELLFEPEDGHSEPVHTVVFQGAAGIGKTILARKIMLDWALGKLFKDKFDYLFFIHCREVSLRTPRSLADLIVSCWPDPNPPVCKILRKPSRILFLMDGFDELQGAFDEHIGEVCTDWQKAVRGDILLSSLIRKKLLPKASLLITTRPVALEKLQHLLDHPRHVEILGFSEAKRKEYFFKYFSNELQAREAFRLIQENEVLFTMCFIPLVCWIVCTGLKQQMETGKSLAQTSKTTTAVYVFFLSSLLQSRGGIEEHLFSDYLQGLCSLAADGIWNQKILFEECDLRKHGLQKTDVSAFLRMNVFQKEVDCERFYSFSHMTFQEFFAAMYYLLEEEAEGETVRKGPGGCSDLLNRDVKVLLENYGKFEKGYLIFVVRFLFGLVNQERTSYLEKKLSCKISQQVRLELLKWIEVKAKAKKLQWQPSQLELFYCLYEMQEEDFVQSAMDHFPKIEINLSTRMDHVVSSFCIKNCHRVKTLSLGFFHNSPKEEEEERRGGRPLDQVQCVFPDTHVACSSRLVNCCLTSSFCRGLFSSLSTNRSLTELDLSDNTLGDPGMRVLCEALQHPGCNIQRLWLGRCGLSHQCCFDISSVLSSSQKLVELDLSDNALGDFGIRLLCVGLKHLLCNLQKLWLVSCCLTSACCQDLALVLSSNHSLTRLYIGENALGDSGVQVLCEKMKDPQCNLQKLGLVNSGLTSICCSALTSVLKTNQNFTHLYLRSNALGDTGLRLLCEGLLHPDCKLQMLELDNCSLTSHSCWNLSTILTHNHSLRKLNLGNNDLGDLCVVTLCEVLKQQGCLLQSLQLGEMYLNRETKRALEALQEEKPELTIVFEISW

Mus musculus [2] = assay: Antiinflammatory activity against LPS-induced lethal septic shock C57BL/6 mouse model assessed as increase in animal's survival rate at 40 mg/kg, ip administered for 1 hr prior to LPS challenge and measured for 72 hrs; type: functional; conditions: time 73 hrs
Mus musculus [3] = assay: Antiinflammatory activity against DSS-induced ulcerative colitis C57BL/6 mouse assessed as reduction in crypt necrosis in colon at 10 mg/kg, ip administered for 9 days and measured on day 10 by H and E staining based analysis; type: functional, organism-based; conditions: time 10.0 day
Mus musculus [4] = assay: Antiinflammatory activity against MCD diet-induced NASH C57BL/6 mouse model assessed as reduction in liver fibrosis at 40 mg/kg, po administered via gavage for 5 weeks by Sirius red staining based analysis; type: functional, organism-based
Mus musculus [5] = assay: Antiinflammatory activity against MCD diet-induced NASH C57BL/6 mouse model assessed as reduction in liver steatosis at 40 mg/kg, po administered via gavage for 5 weeks by Sirius red staining based analysis; type: functional, organism-based
[6] = Effect on immune cell numbers in MCS diet-fed C57BL/6 mouse assessed as effect on CD45 expression at 40 mg/kg, po administered via gavage for 5 weeks by immunofluorescence staining based analysis; type: toxicity, organism-based; conditions: in vivo, 840 h
Mus musculus [7] = assay: Antiinflammatory activity against DSS-induced ulcerative colitis C57BL/6 mouse assessed as reduction in inflammatory cells infiltration in lamina propria in colon at 10 mg/kg, ip administered for 9 days and measured on day 10 by H and E staining based analysis; type: functional, organism-based; conditions: time 10.0 day
[8] = target: NACHT, LRR and PYD domains-containing protein 3 (Mus musculus) (UniProt Q8R4B8); conditions: J774.A1, dose 30.0 nM, time 3.0 hrs
Chain of NACHT, LRR and PYD domains-containing protein 3 (Mus musculus) (Q8R4B8 whole entry, the tested form may be a part): as above

[9] = Effect on immune cell numbers in MCS diet-fed C57BL/6 mouse assessed as effect on F4/80 expression at 40 mg/kg, po administered via gavage for 5 weeks by immunofluorescence staining based analysis; type: toxicity, organism-based; conditions: in vivo, 840 h
Mus musculus [10] = assay: Antiinflammatory activity against MCD diet-induced NASH C57BL/6 mouse model assessed as reduction in immune cell infiltration by measuring reduction in F4/80-positive hepatic cells at 40 mg/kg, po administered via gavage for 5 weeks by immunofluorescence staining based analysis; type: functional, organism-based
Mus musculus [11] = assay: Antiinflammatory activity against MCD diet-induced NASH C57BL/6 mouse model assessed as improvement in liver morphology at 40 mg/kg, po administered via gavage for 5 weeks by H and E staining based analysis; type: functional, organism-based
Hepatocyte = assay: Cytotoxicity against mouse primary hepatic cells assessed as reduction in cell viability at 200 uM measured after 24 hrs by CCK8 assay; type: toxicity, cell-based; conditions: hepatocytes
Mus musculus [12] = assay: Antiinflammatory activity against MCD diet-induced NASH C57BL/6 mouse model assessed as reduction in liver steatosis at 40 mg/kg, po administered via gavage for 5 weeks by Masson's trichrome staining based analysis; type: functional, organism-based
Mus musculus [13] = assay: Antiinflammatory activity against MCD diet-induced NASH C57BL/6 mouse model assessed as protection against MCD diet-induced increase in liver to body weight ratio at 40 mg/kg, po administered via gavage for 5 weeks; type: functional, organism-based
[14] = target: NACHT, LRR and PYD domains-containing protein 3 (Mus musculus) (UniProt Q8R4B8); conditions: J774.A1, dose 30.0 nM, time 3.0 hrs; remark: listed apart in the source
L02 = assay: Cytotoxicity against human HL7702 cells assessed as reduction in cell viability at 200 uM measured after 24 hrs by CCK8 assay; type: toxicity, cell-based; conditions: l02, 24 h
Mus musculus [15] = assay: Antiinflammatory activity against LPS-induced lethal septic shock C57BL/6 mouse model assessed as reduction in serum IL-1 beta level at 20 to 40 mg/kg, ip administered for 1 hr prior to LPS challenge and measured after 2.5 hrs by ELISA; type: functional, organism-based; conditions: dose 20-40 mg/kg, time 3.5 hrs
[16] = Oral bioavailability in C57BL/6 mouse at 20 mg/kg by LC-MS/MS analysis; type: ADME, organism-based; conditions: in vivo
Mus musculus [17] = assay: Antiinflammatory activity against LPS-induced lethal septic shock C57BL/6 mouse model assessed as increase in animal's survival rate at 20 mg/kg, ip administered for 1 hr prior to LPS challenge and measured for 72 hrs; type: functional; conditions: time 73 hrs
Mus musculus [18] = assay: Antiinflammatory activity against MCD diet-induced NASH C57BL/6 mouse model assessed as reduction in immune cell infiltration by measuring reduction in CD45-positive hepatic cells at 40 mg/kg, po administered via gavage for 5 weeks by immunofluorescence staining based analysis; type: functional, organism-based
Mus musculus [19] = assay: Antiinflammatory activity against MCD diet-induced NASH C57BL/6 mouse model assessed as reduction in liver fibrosis at 40 mg/kg, po administered via gavage for 5 weeks by Masson's trichrome staining based analysis; type: functional, organism-based
Mus musculus [20] = assay: Antiinflammatory activity against DSS-induced ulcerative colitis C57BL/6 mouse assessed as reduction in massive loss of goblet cells in colon at 10 mg/kg, ip administered for 9 days and measured on day 10 by H and E staining based analysis; type: functional, organism-based; conditions: time 10.0 day
Mus musculus [21] = assay: Antiinflammatory activity against DSS-induced ulcerative colitis C57BL/6 mouse assessed as reduction in colon length shortening at 10 mg/kg, ip administered for 9 days and measured on day 10; type: functional, organism-based; conditions: time 10.0 day
Mus musculus [22] = assay: Antiinflammatory activity against MCD diet-induced NASH C57BL/6 mouse model assessed as reduction in balloon dilatation in liver at 40 mg/kg, po administered via gavage for 5 weeks by Sirius red staining based analysis; type: functional, organism-based
Mus musculus [23] = assay: Antiinflammatory activity against MCD diet-induced NASH C57BL/6 mouse model assessed as improvement in liver morphology at 40 mg/kg, po administered via gavage for 5 weeks by Masson's trichrome staining based analysis; type: functional, organism-based
Mus musculus [24] = assay: Antiinflammatory activity against MCD diet-induced NASH C57BL/6 mouse model assessed as reduction in balloon dilatation in liver at 40 mg/kg, po administered via gavage for 5 weeks by Masson's trichrome staining based analysis; type: functional, organism-based
Mus musculus [25] = assay: Antiinflammatory activity against MCD diet-induced NASH C57BL/6 mouse model assessed as reduction in liver fibrosis at 40 mg/kg, po administered via gavage for 5 weeks by H and E staining based analysis; type: functional, organism-based
Mus musculus [26] = assay: Antiinflammatory activity against DSS-induced ulcerative colitis C57BL/6 mouse assessed as reduction in mucosal barrier disruption in colon at 10 mg/kg, ip administered for 9 days and measured on day 10 by H and E staining based analysis; type: functional, organism-based; conditions: time 10.0 day
Mus musculus [27] = assay: Antiinflammatory activity against MCD diet-induced NASH C57BL/6 mouse model assessed as reduction in liver steatosis at 40 mg/kg, po administered via gavage for 5 weeks by H and E staining based analysis; type: functional, organism-based
Mus musculus [28] = assay: Antiinflammatory activity against DSS-induced ulcerative colitis C57BL/6 mouse assessed as reduction in body weight loss at 10 mg/kg, ip administered for 9 days and measured daily; type: functional, organism-based; conditions: time 9.0 day
Mus musculus [29] = assay: Antiinflammatory activity against MCD diet-induced NASH C57BL/6 mouse model assessed as reduction in TUNEL-positive hepatic cells at 40 mg/kg, po administered via gavage for 5 weeks by TUNEL assay; type: functional, organism-based
Mus musculus [30] = assay: Antiinflammatory activity against LPS-induced lethal septic shock C57BL/6 mouse model assessed as effect on TNF-alpha level at 40 mg/kg, ip administered for 1 hr prior to LPS challenge and measured after 2.5 hrs by ELISA; type: functional, organism-based; conditions: time 3.5 hrs
[31] = Half life in C57BL/6 mouse at 20 mg/kg, po by LC-MS/MS analysis; type: ADME, organism-based; conditions: in vivo
Mus musculus [32] = assay: Antiinflammatory activity against MCD diet-induced NASH C57BL/6 mouse model assessed as improvement in liver morphology at 40 mg/kg, po administered via gavage for 5 weeks by Sirius red staining based analysis; type: functional, organism-based
Mus musculus [33] = assay: Antiinflammatory activity against MCD diet-induced NASH C57BL/6 mouse model assessed as reduction in balloon dilatation in liver at 40 mg/kg, po administered via gavage for 5 weeks by H and E staining based analysis; type: functional, organism-based

SMILES: CC(C)(O)c1coc(S(=O)(=O)NC(=O)Nc2c3c(cc4c2CCC4)CCC3)c1
- survival at 40 mg/kg (Mus musculus [2]): 60%
- Activity (Mus musculus [3]): Active
- Activity (Mus musculus [4]): Active
- Activity (Mus musculus [5]): Active
- Activity [6]: Non-Toxic
- Activity (Mus musculus [7]): Active
- inhibition [8]: Active
- Activity [9]: Non-Toxic
- Activity (Mus musculus [10]): inactive
- Activity (Mus musculus [11]): Active
- Activity (Hepatocyte): Toxic
- Activity (Mus musculus [12]): Active
- Activity (Mus musculus [13]): Active
- inhibition [14]: Active
- Activity (L02): Toxic
- Activity (Mus musculus [15]): Active
- bioavailability [16]: 85.2%
- survival at 20 mg/kg (Mus musculus [17]): 20%
- Activity (Mus musculus [18]): inactive
- Activity (Mus musculus [19]): Active
- Activity (Mus musculus [20]): Active
- Activity (Mus musculus [21]): Active
- Activity (Mus musculus [22]): Active
- Activity (Mus musculus [23]): Active
- IC50 [1]: 14 nM
- Activity (Mus musculus [24]): Active
- Activity (Mus musculus [25]): Active
- Activity (Mus musculus [26]): Active
- Activity (Mus musculus [27]): Active
- Activity (Mus musculus [28]): Active
- Activity (Mus musculus [29]): Active
- Activity (Mus musculus [30]): inactive
- half-life [31]: 1.32 h
- Activity (Mus musculus [32]): Active
- Activity (Mus musculus [33]): Active

SMILES: Cc1cccc(C)c1NC(=O)NS(=O)(=O)c1ccc(CN(C)C)cc1
- IC50 [1]: > 10000 nM

SMILES: CN(C)Cc1ccc(S(=O)(=O)NC(=O)Nc2c(-c3ccccc3)cccc2-c2ccccc2)cc1
- IC50 [1]: 1480 nM

SMILES: CN(C)C(=O)c1cccc(S(=O)(=O)NC(=O)Nc2c3c(cc4c2CCC4)CCC3)c1
- IC50 [1]: 691 nM

SMILES: CCN(C)Cc1ccc(S(=O)(=O)NC(=O)Nc2c3c(cc4c2CCC4)CCC3)cc1
- IC50 [1]: 63 nM

SMILES: CC(C)(O)c1cccc(S(=O)(=O)NC(=O)Nc2c3c(cc4c2CCC4)CCC3)c1
- IC50 [1]: > 20000 nM

SMILES: CCCCCN(C)Cc1ccc(S(=O)(=O)NC(=O)Nc2c3c(cc4c2CCC4)CCC3)cc1
- IC50 [1]: 1730 nM

Now from value to molecule:

- IC50 [1]: 3720 nM
SMILES: CNC(=O)c1cccc(S(=O)(=O)NC(=O)Nc2c3c(cc4c2CCC4)CCC3)c1

- IC50 [1]: > 10000 nM
SMILES: CN(C)c1ccc(S(=O)(=O)NC(=O)Nc2c3c(cc4c2CCC4)CCC3)cc1

- IC50 [1]: > 10000 nM
SMILES: Cc1cc(C)cc(NC(=O)NS(=O)(=O)c2ccc(CN(C)C)cc2)c1

- IC50 [1]: 1120 nM
SMILES: COC(=O)c1ccc(-c2c3c(c(NC(=O)NS(=O)(=O)c4cc(C(C)(C)O)co4)c4c2CCC4)CCC3)cc1

- IC50 [1]: > 5000 nM
SMILES: CC(C)(C)OC(=O)N1C=C(c2c3c(c(NC(=O)NS(=O)(=O)c4cc(C(C)(C)O)co4)c4c2CCC4)CCC3)CCC1

- IC50 [1]: > 20000 nM
SMILES: CC(C)(O)c1cc(Br)cc(S(=O)(=O)NC(=O)Nc2c3c(cc4c2CCC4)CCC3)c1

- IC50 [1]: 722 nM
SMILES: CN(C)Cc1cc(F)cc(S(=O)(=O)NC(=O)Nc2c3c(cc4c2CCC4)CCC3)c1

- IC50 [1]: 1860 nM
SMILES: CC(C)c1cccc(C(C)C)c1CC(=O)NS(=O)(=O)c1ccc(CN(C)C)cc1

- IC50 [1]: > 10000 nM
SMILES: CCc1cccc(CC)c1NC(=O)NS(=O)(=O)c1ccc(CN(C)C)cc1
